From patent US10167262B2, “Herbicidal substituted 3-arylpyrazoles” (FMC CORPORATION, priority 2014, dated 2019)

What was measured:
Assay in all cases: Test E pre-/postemergence greenhouse test, plant response rating 0-100
Format in all cases: in vivo
[1] = test system: wild poinsettia (Euphorbia heterophylla); conditions: scale 0 to 100; for Poinsettia, Wild plant response rating: Preemergence
How it was run: (§1)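 Each species was tested both preemergence, with chemicals sprayed onto freshly planted silt loam, and postemergence, on plants 2 to 18 cm tall in a peat-based medium; the vehicle was a non-phytotoxic solvent mixture with surfactant. After 14 to 21 days in the greenhouse, growth was visually compared with controls and scored 0–100.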

[2] = test system: Italian ryegrass (Lolium multiflorum); conditions: scale 0 to 100; for Ryegrass, Italian plant response rating: Preemergence
How it was run: as §1

soybean (Glycine max) = conditions: scale 0 to 100; for Soybean plant response rating: Preemergence
How it was run: as §1

[3] = test system: barnyardgrass (Echinochloa crus-galli); conditions: scale 0 to 100; for Barnyardgrass plant response rating: Preemergence
How it was run: as §1

[4] = test system: waterhemp (common waterhemp, Amaranthus rudis); conditions: scale 0 to 100; for Waterhemp plant response rating: Preemergence
How it was run: as §1

[5] = test system: palmer pigweed (Amaranthus palmeri); conditions: scale 0 to 100; for Pigweed, Palmer plant response rating: Preemergence
How it was run: as §1

[6] = test system: hairy beggarticks (Bidens pilosa); conditions: scale 0 to 100; for Beggarticks plant response rating: Preemergence
How it was run: as §1

[7] = test system: sandbur (southern sandbur, Cenchrus echinatus); conditions: scale 0 to 100; for Sandbur plant response rating: Preemergence
How it was run: as §1

[8] = test system: dayflower (Virginia (VA) dayflower, Commelina virginica); conditions: scale 0 to 100; for Dayflower, VA plant response rating: Preemergence
How it was run: as §1

[9] = test system: arrowleaf sida (Sida rhombifolia); conditions: for Arrowleaf Sida plant response rating: Preemergence
How it was run: as §1

corn (Zea mays) = conditions: scale 0 to 100; for Corn plant response rating: Preemergence
How it was run: as §1

[10] = test system: Brazilian crabgrass (Digitaria horizontalis); conditions: scale 0 to 100; for Crabgrass, Brazil plant response rating: Preemergence
How it was run: as §1

C#CCn1cc(C(=O)c2ccccc2)c(-c2cc(Cl)cc(Cl)c2)n1 [Compound 39, [3-(3,5-dichlorophenyl)-1-(2-propyn-1-yl)-1H-pyrazol-4-yl]phenylmethanone]
pest or weed control at 31 g/ha ([1]; Euphorbia heterophylla, post-emergence, Postemergence, 31 g ai/ha, read-out: Plant response rating, Poinsettia, Wild): 0%
pest or weed control at 62 g/ha ([1]; Euphorbia heterophylla, post-emergence, Postemergence, 62 g ai/ha, read-out: Plant response rating, Poinsettia, Wild): 0%
pest or weed control at 125 g/ha ([1]; Euphorbia heterophylla, post-emergence, Postemergence, 125 g ai/ha, read-out: Plant response rating, Poinsettia, Wild): 0%
pest or weed control at 250 g/ha ([1]; Euphorbia heterophylla, post-emergence, Postemergence, 250 g ai/ha, read-out: Plant response rating, Poinsettia, Wild): 0%
pest or weed control at 500 g/ha ([1]; Euphorbia heterophylla, post-emergence, Postemergence, 500 g ai/ha, read-out: Plant response rating, Poinsettia, Wild): 10%
Poinsettia, Wild plant response rating ([1]; 62 g ai/ha): 0
Poinsettia, Wild plant response rating ([1]; 125 g ai/ha): 0
Poinsettia, Wild plant response rating ([1]; 250 g ai/ha): 0
Poinsettia, Wild plant response rating ([1]; 500 g ai/ha): 0
pest or weed control at 31 g/ha ([2]; Lolium multiflorum, post-emergence, Postemergence, 31 g ai/ha): 0%
pest or weed control at 62 g/ha ([2]; Lolium multiflorum, post-emergence, Postemergence, 62 g ai/ha): 0%
pest or weed control at 125 g/ha ([2]; Lolium multiflorum, post-emergence, Postemergence, 125 g ai/ha): 0%
pest or weed control at 250 g/ha ([2]; Lolium multiflorum, post-emergence, Postemergence, 250 g ai/ha): 0%
pest or weed control at 500 g/ha ([2]; Lolium multiflorum, post-emergence, Postemergence, 500 g ai/ha): 0%
Ryegrass, Italian plant response rating ([2]; 62 g ai/ha): 0
Ryegrass, Italian plant response rating ([2]; 125 g ai/ha): 0
Ryegrass, Italian plant response rating ([2]; 250 g ai/ha): 0
Ryegrass, Italian plant response rating ([2]; 500 g ai/ha): 0
plant injury at 31 g/ha (soybean (Glycine max); Glycine max, post-emergence, Postemergence, 31 g ai/ha): 0%
plant injury at 62 g/ha (soybean (Glycine max); Glycine max, post-emergence, Postemergence, 62 g ai/ha): 0%
plant injury at 125 g/ha (soybean (Glycine max); Glycine max, post-emergence, Postemergence, 125 g ai/ha): 0%
plant injury at 250 g/ha (soybean (Glycine max); Glycine max, post-emergence, Postemergence, 250 g ai/ha): 10%
plant injury at 500 g/ha (soybean (Glycine max); Glycine max, post-emergence, Postemergence, 500 g ai/ha): 20%
Soybean plant response rating (soybean (Glycine max); 62 g ai/ha): 0
Soybean plant response rating (soybean (Glycine max); 125 g ai/ha): 0
Soybean plant response rating (soybean (Glycine max); 250 g ai/ha): 0
Soybean plant response rating (soybean (Glycine max); 500 g ai/ha): 0
pest or weed control at 31 g/ha ([3]; Echinochloa crus-galli, post-emergence, Postemergence, 31 g ai/ha): 0%
pest or weed control at 62 g/ha ([3]; Echinochloa crus-galli, post-emergence, Postemergence, 62 g ai/ha): 0%
pest or weed control at 125 g/ha ([3]; Echinochloa crus-galli, post-emergence, Postemergence, 125 g ai/ha): 0%
pest or weed control at 250 g/ha ([3]; Echinochloa crus-galli, post-emergence, Postemergence, 250 g ai/ha): 0%
pest or weed control at 500 g/ha ([3]; Echinochloa crus-galli, post-emergence, Postemergence, 500 g ai/ha): 10%
Barnyardgrass plant response rating ([3]; 62 g ai/ha): 0
Barnyardgrass plant response rating ([3]; 125 g ai/ha): 0
Barnyardgrass plant response rating ([3]; 250 g ai/ha): 0
Barnyardgrass plant response rating ([3]; 500 g ai/ha): 0
pest or weed control at 31 g/ha ([4]; Amaranthus tuberculatus, post-emergence, Postemergence, 31 g ai/ha): 80%
pest or weed control at 125 g/ha ([4]; Amaranthus tuberculatus, post-emergence, Postemergence, 125 g ai/ha): 90%
pest or weed control at 250 g/ha ([4]; Amaranthus tuberculatus, post-emergence, Postemergence, 250 g ai/ha): 95%
pest or weed control at 500 g/ha ([4]; Amaranthus tuberculatus, post-emergence, Postemergence, 500 g ai/ha): 98%
Waterhemp plant response rating ([4]; 62 g ai/ha): 85
Waterhemp plant response rating ([4]; 125 g ai/ha): 95
Waterhemp plant response rating ([4]; 250 g ai/ha): 100
Waterhemp plant response rating ([4]; 500 g ai/ha): 100
pest or weed control at 31 g/ha ([5]; Amaranthus palmeri, post-emergence, Postemergence, 31 g ai/ha): 70%
pest or weed control at 62 g/ha ([5]; Amaranthus palmeri, post-emergence, Postemergence, 62 g ai/ha): 80%
pest or weed control at 125 g/ha ([5]; Amaranthus palmeri, post-emergence, Postemergence, 125 g ai/ha): 80%
pest or weed control at 250 g/ha ([5]; Amaranthus palmeri, post-emergence, Postemergence, 250 g ai/ha): 85%
pest or weed control at 500 g/ha ([5]; Amaranthus palmeri, post-emergence, Postemergence, 500 g ai/ha): 98%
Pigweed, Palmer plant response rating ([5]; 62 g ai/ha): 20
Pigweed, Palmer plant response rating ([5]; 125 g ai/ha): 50
Pigweed, Palmer plant response rating ([5]; 250 g ai/ha): 90
Pigweed, Palmer plant response rating ([5]; 500 g ai/ha): 85
pest or weed control at 31 g/ha ([6]; Bidens pilosa, post-emergence, Postemergence, 31 g ai/ha): 80%
pest or weed control at 62 g/ha ([6]; Bidens pilosa, post-emergence, Postemergence, 62 g ai/ha): 85%
pest or weed control at 125 g/ha ([6]; Bidens pilosa, post-emergence, Postemergence, 125 g ai/ha): 90%
pest or weed control at 250 g/ha ([6]; Bidens pilosa, post-emergence, Postemergence, 250 g ai/ha): 95%
pest or weed control at 500 g/ha ([6]; Bidens pilosa, post-emergence, Postemergence, 500 g ai/ha): 95%
Beggarticks plant response rating ([6]; 62 g ai/ha): 0
Beggarticks plant response rating ([6]; 125 g ai/ha): 0
Beggarticks plant response rating ([6]; 250 g ai/ha): 0
Beggarticks plant response rating ([6]; 500 g ai/ha): 0
pest or weed control at 31 g/ha ([7]; Cenchrus echinatus, post-emergence, Postemergence, 31 g ai/ha): 0%
pest or weed control at 62 g/ha ([7]; Cenchrus echinatus, post-emergence, Postemergence, 62 g ai/ha): 0%
pest or weed control at 125 g/ha ([7]; Cenchrus echinatus, post-emergence, Postemergence, 125 g ai/ha): 0%
pest or weed control at 250 g/ha ([7]; Cenchrus echinatus, post-emergence, Postemergence, 250 g ai/ha): 0%
pest or weed control at 500 g/ha ([7]; Cenchrus echinatus, post-emergence, Postemergence, 500 g ai/ha): 0%
Sandbur plant response rating ([7]; 62 g ai/ha): 0
Sandbur plant response rating ([7]; 125 g ai/ha): 0
Sandbur plant response rating ([7]; 250 g ai/ha): 0
Sandbur plant response rating ([7]; 500 g ai/ha): 0
pest or weed control at 31 g/ha ([8]; Commelina virginica, post-emergence, Postemergence, 31 g ai/ha): 0%
pest or weed control at 62 g/ha ([8]; Commelina virginica, post-emergence, Postemergence, 62 g ai/ha): 0%
pest or weed control at 125 g/ha ([8]; Commelina virginica, post-emergence, Postemergence, 125 g ai/ha): 0%
pest or weed control at 250 g/ha ([8]; Commelina virginica, post-emergence, Postemergence, 250 g ai/ha): 0%
pest or weed control at 500 g/ha ([8]; Commelina virginica, post-emergence, Postemergence, 500 g ai/ha): 0%
Dayflower, VA plant response rating ([8]; 62 g ai/ha): 0
Dayflower, VA plant response rating ([8]; 125 g ai/ha): 0
Dayflower, VA plant response rating ([8]; 250 g ai/ha): 0
Dayflower, VA plant response rating ([8]; 500 g ai/ha): 0
Arrowleaf Sida plant response rating ([9]; 62 g ai/ha, scale 0 to 100): 0
Arrowleaf Sida plant response rating ([9]; 125 g ai/ha, scale 0 to 100): 90
Arrowleaf Sida plant response rating ([9]; 250 g ai/ha, scale 0 to 100): 95
Arrowleaf Sida plant response rating ([9]; 500 g ai/ha, scale 0 to 100): 95
pest or weed control at 31 g/ha ([9]; Sida rhombifolia, post-emergence, Postemergence, 31 g ai/ha, scale 0 to 100): 75%
pest or weed control at 62 g/ha ([9]; Sida rhombifolia, post-emergence, Postemergence, 62 g ai/ha, scale 0 to 100): 80%
pest or weed control at 125 g/ha ([9]; Sida rhombifolia, post-emergence, Postemergence, 125 g ai/ha, scale 0 to 100): 85%
pest or weed control at 250 g/ha ([9]; Sida rhombifolia, post-emergence, Postemergence, 250 g ai/ha, scale 0 to 100): 90%
pest or weed control at 500 g/ha ([9]; Sida rhombifolia, post-emergence, Postemergence, 500 g ai/ha, scale 0 to 100 (0 no effect, 100 complete control)): 90%
Corn plant response rating (corn (Zea mays); 62 g ai/ha): 0
Corn plant response rating (corn (Zea mays); 125 g ai/ha): 0
Corn plant response rating (corn (Zea mays); 250 g ai/ha): 0
Corn plant response rating (corn (Zea mays); 500 g ai/ha): 0
Corn plant response rating (crop injury, 0 = no effect, 100 = complete kill) at 31 g/ha (corn (Zea mays); Zea mays, post-emergence, Postemergence, 31 g ai/ha): 0%
Corn plant response rating (crop injury, 0 = no effect, 100 = complete kill) at 62 g/ha (corn (Zea mays); Zea mays, post-emergence, Postemergence, 62 g ai/ha): 0%
Corn plant response rating (crop injury, 0 = no effect, 100 = complete kill) at 125 g/ha (corn (Zea mays); Zea mays, post-emergence, Postemergence, 125 g ai/ha): 0%
Corn plant response rating (crop injury, 0 = no effect, 100 = complete kill) at 250 g/ha (corn (Zea mays); Zea mays, post-emergence, Postemergence, 250 g ai/ha): 0%
Corn plant response rating (crop injury, 0 = no effect, 100 = complete kill) at 500 g/ha (corn (Zea mays); Zea mays, post-emergence, Postemergence, 500 g ai/ha): 0%
pest or weed control at 31 g/ha ([10]; Digitaria horizontalis, post-emergence, Postemergence, 31 g ai/ha, read-out: Plant response rating, Crabgrass, Brazil): 0%
pest or weed control at 62 g/ha ([10]; Digitaria horizontalis, post-emergence, Postemergence, 62 g ai/ha, read-out: Plant response rating, Crabgrass, Brazil): 0%
pest or weed control at 125 g/ha ([10]; Digitaria horizontalis, post-emergence, Postemergence, 125 g ai/ha, read-out: Plant response rating, Crabgrass, Brazil): 0%
pest or weed control at 250 g/ha ([10]; Digitaria horizontalis, post-emergence, Postemergence, 250 g ai/ha, read-out: Plant response rating, Crabgrass, Brazil): 0%
pest or weed control at 500 g/ha ([10]; Digitaria horizontalis, post-emergence, Postemergence, 500 g ai/ha, read-out: Plant response rating, Crabgrass, Brazil): 5%
Crabgrass, Brazil plant response rating ([10]; 62 g ai/ha): 0
Crabgrass, Brazil plant response rating ([10]; 125 g ai/ha): 0
Crabgrass, Brazil plant response rating ([10]; 250 g ai/ha): 0
Crabgrass, Brazil plant response rating ([10]; 500 g ai/ha): 0
